Several values for one entry are separate records, joined by “and”; a condition that tells them apart may be missing. Equal entries are not always repeated. Where a SMILES comes first, the peptide text is derived from it.
What follows are molecules tested on lipase (assay: Lipase/lipolysis assay (EnzChek Lipase Substrate, quenched BODIPY-fatty acid conjugate) on stored human milk; also: test concentration or dose not given here).

Question: Which “Lipase (RFU)” value does the source give for `C/C1=C2/[N-][C@H]([C@H](CC(N)=O)[C@@]2(C)CCC(=O)NC[C@@H](C)OP(=O)([O-])O[C@H]2[C@@H](O)[C@@H](n3cnc4cc(C)c(C)cc43)O[C@@H]2CO)[C@]2(C)N=C(/C(C)=C3N=C(/C=C4N=C1[C@@H](CCC(N)=O)C\4(C)C)[C@@H](CCC(N)=O)[C@]\3(C)CC(N)=O)[C@@H](CCC(N)=O)[C@]2(C)CC(N)=O.[CH2-][C@H]1O[C@@H](n2cnc3c(N)ncnc32)[C@H](O)[C@@H]1O.[Co]` [Adenosylcobalamin] here?
Answer: Its value is 817.3471 RFU.

Question: Which “Lipase (RFU)” value does the source give for `CCCCCCCCCCCCC/C=C/[C@@H](O)[C@@H](N)CO[C@@H]1O[C@H](CO)[C@@H](O)[C@H](O)[C@H]1O` [Glucosylsphingosine] here?
Answer: Its value is 955.6283 RFU.

Question: For `CC(=O)Oc1c(C)c(C)c2c(c1C)CCC(C)(CCCC(C)CCCC(C)CCCC(C)C)O2` (racemic) [DL-α-Tocopherol acetate], which “Lipase (RFU)” value is on record?
Answer: The value was 697.673 RFU.

Question: For `O=c1ccc2c(O)c3ccoc3cc2o1` [Bergaptol], which “Lipase (RFU)” value is on record?
Answer: The value was 1060.003 RFU.

Question: For `O=C([O-])[C@H](O)[C@@H](O)[C@H](O)[C@H](O)CO.[Na+]` [Gluconate (sodium)], which “Lipase (RFU)” value is on record?
Answer: Its value is 1019.914 RFU.

Question: For `CC1(C)[C@H](C(=O)[O-])N2C(=O)C[C@H]2S1(=O)=O.[Na+]` [Sulbactam (sodium)], which “Lipase (RFU)” value is on record?
Answer: The value was 1191.707 RFU.

Question: Which “Lipase (RFU)” value does the source give for `COc1cc2c(cc1O)CC[C@@H]1[C@@H]2CC[C@]2(C)[C@@H](O)CC[C@@H]12` [Compound 2-Methoxyestradiol] here?
Answer: The value was 884.0231 RFU.

Question: Which “Lipase (RFU)” value does the source give for `NCC(=O)N[C@@H](CCC(=O)O)C(=O)O` [Glycyl-L-Glutamic Acid] (H-Gly-Glu-OH) here?
Answer: Its value is 846.2286 RFU.

Question: `NCC(=O)N1CCC[C@H]1C(=O)O` [H-Gly-Pro-OH] (H-Gly-Pro-OH) was tested. Which “Lipase (RFU)” value did it give?
Answer: Its value is 952.5324 RFU.

Question: Cytidine-2′,3′-cyclic monophosphate was tested. Which “Lipase (RFU)” value did it give?
Answer: Its value is 1332.358 RFU.

Question: How did the “Lipase (RFU)” value turn out when Alliin was run?
Answer: The value was 782.3552 RFU.

Question: `O=S(=O)([O-])c1ccc(N=Nc2c(O)ccc3cc(S(=O)(=O)[O-])ccc23)cc1.[Na+].[Na+]` [Sunset Yellow FCF] was tested. Which “Lipase (RFU)” value did it give?
Answer: Its value is 868.5434 RFU.

Question: How did the “Lipase (RFU)” value turn out when `CC(=O)N[C@@H](C)C(=O)O` [Ac-Ala-OH] was run?
Answer: The value was 1189.332 RFU.

Question: How did the “Lipase (RFU)” value turn out when Xylan was run?
Answer: The value was 1273.332 RFU.

Question: Which “Lipase (RFU)” value does the source give for `O=C(O)CC(O)C(=O)O` (racemic) [D,L-Malic Acid] here?
Answer: The value was 781.9881 RFU.

Question: `CC1O[C@@H](OC[C@H]2O[C@@H](Oc3c(-c4ccc(O)cc4)oc4cc(O)cc(O)c4c3=O)C(O[C@@H]3O[C@H](C)[C@H](O)C(O)C3O)C(O)[C@H]2O)C(O)[C@@H](O)[C@H]1O` (stereo partly shown) [Mauritianin] was tested. Which “Lipase (RFU)” value did it give?
Answer: Its value is 860.4015 RFU.

Question: For `COc1cc(C=O)cc(OC)c1O` [Syringaldehyde], which “Lipase (RFU)” value is on record?
Answer: Its value is 938.0511 RFU and 949.8732 RFU.

Question: `O=C(/C=C/c1ccc(O)cc1)c1ccc(O[C@@H]2O[C@H](CO)[C@@H](O)[C@H](O)[C@H]2O)cc1O` [Neoisoliquiritin] was tested. Which “Lipase (RFU)” value did it give?
Answer: Its value is 789.3461 RFU.

Question: How did the “Lipase (RFU)” value turn out when `O=C(O)c1cc(O)c2cccc(O)c2n1` [Xanthurenic acid] was run?
Answer: The value was 1023.37 RFU.

Question: With `C[C@H](CCC(=O)O)[C@H]1CC[C@H]2[C@@H]3CC[C@H]4C[C@@H](O)CC[C@]4(C)[C@H]3CC[C@]12C` [Isoallolithocholic acid] as the molecule, how does the “Lipase (RFU)” value read?
Answer: Its value is 881.405 RFU.

Question: With `CCCCCCCCCCCC(=O)O[C@H](CC(=O)[O-])C[N+](C)(C)C` [Dodecanoylcarnitine] as the molecule, how does the “Lipase (RFU)” value read?
Answer: Its value is 868.7983 RFU.

Question: How did the “Lipase (RFU)” value turn out when `CC(O)CN` (stereo not shown) [Compound 1-Aminopropan-2-ol, 1-Aminopropan-2-ol] was run?
Answer: The value was 1021.874 RFU and 806.2549 RFU.

Question: How did the “Lipase (RFU)” value turn out when `CC(=O)[C@@]1(O)CC[C@H]2[C@@H]3CCC4=CC(=O)CC[C@]4(C)[C@H]3CC[C@@]21C` [17α-Hydroxyprogesterone] was run?
Answer: The value was 867.6703 RFU.

Question: Which “Lipase (RFU)” value does the source give for `CN(CC(=O)O)C(=N)NP(=O)(O)O` [Phosphocreatine] here?
Answer: The value was 915.1867 RFU.

Question: How did the “Lipase (RFU)” value turn out when `CC(C)(O)[C@@H]1Cc2cc3ccc(=O)oc3cc2O1` [S-(+)-Marmesin] was run?
Answer: The value was 984.7966 RFU.

Question: Which “Lipase (RFU)” value does the source give for `O=c1cc(-c2ccc(O)cc2)oc2c([C@@H]3O[C@H](CO)[C@@H](O)[C@H](O)[C@H]3O)c(O)c([C@@H]3O[C@H](CO)[C@@H](O)[C@H](O)[C@H]3O)c(O)c12` [Vicenin 2] here?
Answer: The value was 893.9745 RFU.

Question: How did the “Lipase (RFU)” value turn out when `OC[C@H]1O[C@H](OC[C@H]2O[C@H](O[C@H]3[C@H](O)[C@@H](O)C(O)O[C@@H]3CO)[C@H](O)[C@@H](O)[C@@H]2O)[C@H](O)[C@@H](O)[C@@H]1O` (stereo partly drawn) [D-Panose] was run?
Answer: Its value is 982.4149 RFU.

Question: Which “Lipase (RFU)” value does the source give for `NC(=O)OP(=O)(O)O` [Carbamyl Phosphate] here?
Answer: Its value is 699.376 RFU.

Question: `O=C(/C=C/c1ccc(O)c(O)c1)O[C@@H]1C[C@@](O)(C(=O)O)C[C@@H](O)[C@@H]1O` [Neochlorogenic acid] was tested. Which “Lipase (RFU)” value did it give?
Answer: Its value is 1024.869 RFU.

Question: Which “Lipase (RFU)” value does the source give for `C1CNCCN1.O=C(O)CC(O)(CC(=O)O)C(=O)O` [Piperazine (citrate)] here?
Answer: Its value is 986.285 RFU.

Question: `CC(=O)OC(C)(C)/C=C/C(=O)[C@](C)(O)[C@H]1[C@H](O)C[C@@]2(C)[C@@H]3CC=C4[C@@H](C=C(O)C(=O)C4(C)C)[C@]3(C)C(=O)C[C@]12C` [Cucurbitacin E] was tested. Which “Lipase (RFU)” value did it give?
Answer: The value was 641.6726 RFU.

Question: `C[C@]12CC[C@@H](O)C[C@H]1CC[C@@H]1[C@@H]2CC[C@]2(C)C(=O)CC[C@@H]12` [Etiocholanolone] was tested. Which “Lipase (RFU)” value did it give?
Answer: The value was 868.806 RFU.

Question: Which “Lipase (RFU)” value does the source give for `O=C[C@H](O)[C@@H](O)[C@H](O)[C@H](O)COP(=O)([O-])[O-].[Na+].[Na+]` [D-Glucose 6-phosphate (disodium salt)] here?
Answer: Its value is 1238.699 RFU.

Question: For `COc1cc(C[C@@H](CO)[C@H](CO)Cc2ccc(O)c(OC)c2)ccc1O` [Secoisolariciresinol], which “Lipase (RFU)” value is on record?
Answer: Its value is 1112.005 RFU.

Question: How did the “Lipase (RFU)” value turn out when `CC(C)(O[C@@H]1O[C@H](CO)[C@@H](O)[C@H](O)[C@H]1O)[C@H]1Oc2cc3oc(=O)ccc3cc2[C@H]1O` [Smyrindioloside] was run?
Answer: The value was 1066.572 RFU.

Question: Which “Lipase (RFU)” value does the source give for `CC1=C(O)C(=O)C=C2C1=CC=C1[C@@]2(C)CC[C@@]2(C)[C@@H]3C[C@](C)(C(=O)O)CC[C@]3(C)CC[C@]12C` [Tripterin] here?
Answer: Its value is 952.6128 RFU.

Question: How did the “Lipase (RFU)” value turn out when `CC1(C)CCCC2(C)OC(=O)C=C12` (single isomer, unassigned; (+)) [(+)-Dihydroactinidiolide] was run?
Answer: Its value is 951.3124 RFU.

Question: With `CCCCOC(=O)c1ccc(O)cc1` [Butylparaben] as the molecule, how does the “Lipase (RFU)” value read?
Answer: Its value is 948.3985 RFU.

Question: `C[C@H](CCC(=O)NCCS(=O)(=O)O)[C@H]1CC[C@H]2[C@@H]3[C@H](O)C[C@@H]4C[C@H](O)CC[C@]4(C)[C@H]3C[C@H](O)[C@]12C` [Taurocholic acid (sodium)] was tested. Which “Lipase (RFU)” value did it give?
Answer: Its value is 1062.302 RFU and 748.8784 RFU.

Question: With `C[C@H](CC(=O)C[C@](C)(O)[C@@H]1CC(=O)[C@@]2(C)C3=C(C(=O)C[C@]12C)[C@@]1(C)CC[C@H](O)C(C)(C)[C@@H]1C[C@@H]3O)C(=O)O` [Ganoderic acid I] as the molecule, how does the “Lipase (RFU)” value read?
Answer: Its value is 969.9191 RFU.

Question: With `O=C1C[C@@H](c2ccc(O)cc2)Oc2cc(O[C@@H]3O[C@H](CO)[C@@H](O)[C@H](O)[C@H]3O)ccc21` [Neoliquiritin] as the molecule, how does the “Lipase (RFU)” value read?
Answer: The value was 772.4579 RFU.

Question: For Elemicin, which “Lipase (RFU)” value is on record?
Answer: The value was 1009.834 RFU.

Question: How did the “Lipase (RFU)” value turn out when `C1CSCSC1` [1,3-Dithiane] was run?
Answer: The value was 1179.502 RFU.

Reference: patent US12507703B2, “Methods, devices and compositions for preserving human milk” (The Trustees of Princeton University, priority 2023, dated 2025)
